US7572770B2, “Use of an interleukin 1 receptor antagonist and/or pyrrolidinedithiocarbamate for the treatment or prophylaxis of type 2 diabetes” (University of Zurich, priority 2002, dated 2009)

How the values were obtained:
human islets β-cells = test: Detection of IL-1β expressing β-cells in cultured human islets (double immunostaining); type: cell-based; settings: 33.3 mM glucose, 4 days, co-incubation with IL-1Ra
Description: Islet isolation and culture. Islets were isolated from pancreases of eleven organ donors at the Department of Surgery, University of Geneva Medical Center, as described (32-34). The islet purity was >95%, as judged by dithizone staining (if this degree of purity was not primarily achieved by routine isolation, islets were handpicked). […] For long-term in vitro studies, the islets were cultured on extracellular matrix-coated plates derived from bovine corneal endothelial cells (Novamed Ltd., Jerusalem, Israel), allowing the cells to attach to the dishes and spread, preserving their functional integrity (7;35). Islets were cultured in CMRL 1066 medium containing 100 U/ml penicillin, 100 μg/ml streptomycin and 10% fetal calf serum (Gibco, Gaithersburg, Md.), hereinafter referred to as culture medium. Two days after plating, when most islets were attached and began to flatten, the medium was changed to culture medium containing 5.5, 11.1 or 33.3 mM glucose. In some experiments, islets were additionally cultured with 2 ng/ml recombinant human IL-1β, 1000 U/ml recombinant human IFNγ (ReproTech EC Ltd, London, UK), 500 ng/ml IL-1β receptor antagonist (IL-1Ra) (R&D Systems Inc., Minneapolis, Minn.), 1 ng/ml membrane bound Fas-ligand (FasL) (36) (upstate biotechnology, Lake Placid, N.Y.) or with 100 μM pyrrolidinedithiocarbamate (PDTC; Sigma; 2 h per 2 d of culture). […]

IL-1β = IL-1β release and expression in human islets exposed to leptin; type: cell-based
Description: Islet isolation and cell culture. Islets were isolated from pancreases of ten organ donors at the Department of Surgery, University of Geneva Medical Center, as described (32-34). The islet purity was >95%, as judged by dithizone staining (if this degree of purity was not primarily achieved by routine isolation, islets were handpicked). […] For long-term in vitro studies, the islets were cultured on extracellular matrix-coated plates derived from bovine corneal endothelial cells (Novamed Ltd., Jerusalem, Israel), allowing the cells to attach to the dishes and spread, preserving their functional integrity (7;35). Islets were cultured in CMRL 1066 medium containing 100 U/ml penicillin, 100 μg/ml streptomycin and 10% fetal calf serum (Invitrogen Corporation, Paisley, U.K.), hereafter referred to as culture medium. Two days after plating, when most islets were attached and began to flatten, the medium was changed to culture medium containing 5.5, 11.1 or 33.3 mM glucose. In some experiments, islets were additionally cultured with 5, 10 or 500 nM rh leptin (PeproTech, London, UK), 500 ng/ml rh IL-1Ra (R&D Systems Inc., Minneapolis, Minn.) or 50 nM small interfering RNA (siRNA) as described below.
Detection of IL-1Ra and IL-1β expressing cells. Pancreases from routine necropsies were immersion-fixed in formalin, followed by paraffin embedding. In parallel, isolated human were cultured in a suspension for 48 hours and exposed to 10 nM leptin or 33.3 mM glucose, islets were fixed in Bouin solution for 15 min, resuspended in 40 μl of 2% melted agarose in PBS (40° C.), followed by rapid centrifugation and paraffin embedding. Sections were deparaffinized, rehydrated and then incubated in methanol for 4 min. Human islets cultured on extracellular matrix for 4 days were washed in PBS, fixed in 4% paraformaldehyde (30 min, room temperature) followed by permeabilization with 0.5% triton X-100 (4 min, room temperature). Pancreas and islet sections and cultured cells were double-labeled for IL-1Ra or IL-1β and insulin, CD68, glucagon or somatostatin by 1 h of exposure to 10% bovine serum albumin followed by incubation (1 h, 37° C.) with biotinylated goat anti-IL-1Ra or mouse anti-IL-1β antibodies (R&D Systems Inc.). […]
RNA extraction and RT-PCR. […] PCR conditions were: denaturation for 30 seconds at 94° C., annealing for 30 seconds at 60° C., and elongation for 30 seconds at 72° C., followed for real time PCR by quantification for 5 seconds at 82° C.; repetition for 40 cycles. […] For quantitative analysis, we used the LightCycler quantitative PCR system (Roche) and performed quantitative PCR with a commercial kit (LightCycler-DNA Master SYBR Green I; Roche). […]

Row | Substance | IL-1β positive β-cells (double immunostaining) (human islets β-cells) | IL-1β expression in β-cells (triple immunostaining) (IL-1β; 10 nM leptin, 48 hours) | IL-1β RNA expression of islets (quantitative RT-PCR) (IL-1β; leptin) | IL-1β release into culture medium (IL-1β; leptin, 15 hours) | IL-1β release into culture medium (IL-1β; leptin, 48 hours)
1 | Interleukin 1 receptor antagonist [IL-1Ra] | displayed similar results |  |  |  | 
2 | leptin: rh leptin (PeproTech); protein encoded by the ob gene |  | induced IL-1β expression in TUNEL-positive β-cells | not significantly changed | increased IL-1β release | remained increased
